From patent publication US20260207614A1, “IRAK4 DEGRADERS AND USES THEREOF” (Kymera Therapeutics, Inc., priority 2022, published 2026)
Where two headings read alike, the source gives them in different places.

Columns and labels:
[1] = tested on: MSU-crystal induced (TLR 2/4-dependent) inflammation; experiment: Mouse air pouch model of MSU-crystal induced inflammation; format: in vivo
From the text: Overall, efficacy was associated with achieving at least 80% or more IRAK4 knockdown in associated tissues in the model systems.

[2] = tested on: patients with atopic dermatitis (AD); experiment: Phase 1 Part C clinical efficacy in atopic dermatitis; format: in vivo, human
From the text: Baseline Characteristics and Disposition: A total of 21 patients were enrolled in the trial, including 13 HS and 8 AD patients, with median age 31-40 years (13 female, 8 male). Disease severity for HS was moderate (10), severe (1) and very severe (2) and for AD was mild (1), moderate (5) and severe (2). One HS and 1 AD patient withdrew from treatment early due to personal reasons, resulting in 12 HS and 7 AD patients evaluable for PD and clinical efficacy.
AD clinical endpoints collected in the study included EASI score, Peak Pruritus NRS and vIGA-AD. Peak Pruritus NRS was used to derive Peak Pruritus NRS responder rate.

Solubility = format: physicochemical
From the text: Compound A can be classified tentatively as a BCS II compound.

[3] = target: T1, breast cancer resistance protein (BCRP) (Homo sapiens, UniProt Q9UNQ0); experiment: BCRP substrate and efflux inhibition in vitro; format: in vitro ADME
T1 sequence (Q9UNQ0 1-655): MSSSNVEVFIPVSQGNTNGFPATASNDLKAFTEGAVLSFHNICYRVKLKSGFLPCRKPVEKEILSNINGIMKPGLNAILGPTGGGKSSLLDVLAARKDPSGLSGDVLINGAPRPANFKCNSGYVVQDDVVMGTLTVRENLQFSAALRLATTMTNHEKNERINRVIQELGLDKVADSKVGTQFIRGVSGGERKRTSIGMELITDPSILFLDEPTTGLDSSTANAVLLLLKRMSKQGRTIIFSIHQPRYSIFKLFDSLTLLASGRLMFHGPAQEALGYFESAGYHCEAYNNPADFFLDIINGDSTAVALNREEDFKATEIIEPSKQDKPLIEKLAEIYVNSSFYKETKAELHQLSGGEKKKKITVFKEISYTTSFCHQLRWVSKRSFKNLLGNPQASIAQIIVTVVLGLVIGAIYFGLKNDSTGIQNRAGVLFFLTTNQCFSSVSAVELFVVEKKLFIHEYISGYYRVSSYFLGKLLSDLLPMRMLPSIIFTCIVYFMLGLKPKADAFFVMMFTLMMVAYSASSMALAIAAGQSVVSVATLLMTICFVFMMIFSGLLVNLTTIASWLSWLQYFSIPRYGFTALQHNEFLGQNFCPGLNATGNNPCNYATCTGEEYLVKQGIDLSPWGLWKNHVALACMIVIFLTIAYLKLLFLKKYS
From the text: (§1) In in vivo pharmacokinetic (PK) studies conducted in rats, dogs, and monkeys.
(§2) Metabolites generated in liver microsomes from humans were also detected in those from rat, dog, and monkey. In the in vitro drug-drug interaction studies.

[4] = In vivo PK studies in rats, dogs and monkeys
From the text: as §1

CYP2C19 = CYP2C19 (Homo sapiens, UniProt P33261); experiment: In vitro drug-drug interaction study, CYP2C19; format: in vitro ADME
Sequence of CYP2C19 (P33261 whole entry): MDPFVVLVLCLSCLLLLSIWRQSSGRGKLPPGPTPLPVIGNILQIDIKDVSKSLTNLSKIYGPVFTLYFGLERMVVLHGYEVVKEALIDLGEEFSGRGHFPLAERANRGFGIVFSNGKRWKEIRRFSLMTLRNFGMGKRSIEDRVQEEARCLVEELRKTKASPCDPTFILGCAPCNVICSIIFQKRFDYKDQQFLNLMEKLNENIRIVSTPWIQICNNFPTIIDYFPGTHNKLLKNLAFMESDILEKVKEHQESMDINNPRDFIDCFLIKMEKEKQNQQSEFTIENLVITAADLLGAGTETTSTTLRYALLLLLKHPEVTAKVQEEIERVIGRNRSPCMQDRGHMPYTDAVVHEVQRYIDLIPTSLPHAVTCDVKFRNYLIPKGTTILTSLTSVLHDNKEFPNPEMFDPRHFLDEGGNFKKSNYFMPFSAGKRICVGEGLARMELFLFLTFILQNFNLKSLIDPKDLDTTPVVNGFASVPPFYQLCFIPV
From the text: as §2

[5] = tested on: LPS (TLR4)-stimulated cytokine induction in whole blood; experiment: Phase 1 SAD ex vivo LPS-stimulated cytokine induction in whole blood; set-up: species or system human; details: 24-48 hours, Cohort 7
[6] = 30 to 100 mg/kg twice daily, 3 days
[7] = AD, n = 7, 75 mg QD fed, highest response across Days 28 through 42
[8] = AD, n = 7, deepest reduction across Days 28 through 42

Cn1c(=O)n([C@@H]2CCC(=O)NC2=O)c2cccc(C#CCOC3CCN(C[C@H]4CC[C@H](n5cc(NC(=O)c6cnn7ccc(N8C[C@H]9C[C@@H]8CO9)nc67)c(C(F)F)n5)CC4)CC3)c21 [Compound A, 5-((1R,4R)-2-oxa-5-azabicyclo[2.2.1]heptan-5-yl)-N-(3-(difluoromethyl)-1-((1r,4R)-4-((4-((3-(1-(2,6-dioxopiperidin-3-yl)-3-methyl-2-oxo-2,3-dihydro-1H-benzo[d]imidazol-4-yl)prop-2-yn-1-yl)oxy)piperidin-1-yl)methyl)cyclohexyl)-1H-pyrazol-4-yl)pyrazolo[1,5-a]pyrimidine-3-carboxamide]
IRAK4 levels in the spleen [1, 6]: significantly reduced | inflammatory exudate, including neutrophils and IL-1β [1, 6]: significantly reduced | IRAK4 knockdown in associated tissues associated with efficacy ([1]; murine inflammation model systems overall): at least 80% | EASI score reduction ([2]; AD patients, FIG. 26): up to 37% | Peak Pruritus NRS reduction ([2]; AD patients, FIG. 27): 52-63% | Peak pruritus NRS Responder rate ([2]; AD patients, FIG. 27): 57-71% | Responders: Peak Pruritis NRS, Past 24 Hours [2, 7]: 71% | Responders: Peak Pruritis NRS, Past Week [2, 7]: 57% | ΔEASI [2, 8]: −37% | ΔPeak Pruritis NRS, Past 24 Hours [2, 8]: −63% | ΔPeak Pruritis NRS, Past Week [2, 8]: −52% | disease severity in patient AD-3 ([2]; FIG. 29): from severe to mild | vIGA-AD (IGA scores) ([2]; all AD patients): stable or improved (2 of 7) | solubility (Solubility): low | solubility (Solubility; FaSSIF, pH 6.5, fassif, read-out: solubility in bio-relevant fluid (FaSSIF)): < 12 mg/mL | solubility (Solubility; aqueous media, aqueous buffer, across the physiological pH range, read-out: aqueous solubility): ≤ 3 mg/mL | BCS classification (Solubility; tentative): BCS II | inhibition of BCRP efflux [3]: inhibited BCRP efflux | substrate of breast cancer resistance protein (BCRP) [3]: substrate | bioavailability [4]: low to moderate | clearance [4]: moderate to high | terminal half-life [4]: moderate | volume of distribution at steady state [4]: high | time dependent inhibition (TDI) of CYP2C19 (CYP2C19): potential time dependent inhibition (TDI) | Mean Maximum Percent Change from Baseline in ex vivo IFNγ induction [5]: −42%^ | Mean Maximum Percent Change from Baseline in ex vivo IL1β induction [5]: −68%^1 | Mean Maximum Percent Change from Baseline in ex vivo IL6 induction [5]: −62%^1 | Mean Maximum Percent Change from Baseline in ex vivo IL8 induction [5]: −81%^1 | Mean Maximum Percent Change from Baseline in ex vivo IL10 induction [5]: −83%^1 | Mean Maximum Percent Change from Baseline in ex vivo IL12 induction [5]: −35%^2 | Mean Maximum Percent Change from Baseline in ex vivo IL17 induction [5]: −43%^2 | Mean Maximum Percent Change from Baseline in ex vivo TNFα induction [5]: −42%^2
